In the test the target is T1, glutathione S-transferase (GST)-linked full-length human Syk protein (Homo sapiens, UniProt P43405).
T1 construct: glutathione S-transferase (GST)-linked full-length human Syk protein; purchased Carna Biosciences; host or cells: Baculovirus expression system
The experiment in a line: Syk enzyme assay. In kind it is biochemical. To be noted: 0.83 nM Syk, time-resolved fluorescence; read-out: IC50 of Syk-inhibitory activity. The essentials:
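Phosphotyrosine on a biotin-peptide substrate (0.5 μM) was read by time-resolved fluorescence at 615 and 665 nm with Eu-anti-pTyr antibody and APC-streptavidin after 1 h EDTA stop.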

Among the data in US9051310B2, “Nicotinamide derivative or salt thereof” (FUJIFILM Corporation, priority 2011, dated 2015) are IC50 values, retold here.

As usually defined, the IC50 is the midpoint of a concentration-inhibition curve.

For the compound `CCOc1ncc(Nc2nc(N[C@H](C3CCC3)[C@H](C)N)c(F)cc2C(N)=O)cc1-n1cccn1` [Example 2-168, 6-(((1R,2S)-2-amino-1-cyclobutylpropyl)amino)-2-((6-ethoxy-5-(1H-pyrazol-1-yl)pyridin-3-yl)amino)-5-fluoronicotinamide], the IC50 lay in the range of 10 to 50 nM.
Consider `COCCNc1nn(C)c2ccc(Nc3nc(N[C@H](C4CC4)[C@H](C)N)c(F)cc3C(N)=O)cc12` [Example 2-464, 6-(((1R,2S)-2-amino-1-cyclopropylpropyl)amino)-5-fluoro-2-((3-((2-methoxyethyl)amino)-1-methyl-1H-indazol-5-yl)amino)nicotinamide], for which the IC50 was in the range of 10 to 50 nM.
As for `C[C@H](N)[C@H](Nc1nc(Nc2cnc(N3CCOCC3)nc2)c(C(N)=O)cc1F)C1CC1` [Example 2-563, 6-(((1R,2S)-2-amino-1-cyclopropylpropyl)amino)-5-fluoro-2-((2-morpholinopyrimidin-5-yl)amino)nicotinamide], the figure is 50 to 100 nM.
For the compound `CC[C@H](N)[C@H](Nc1nc(Nc2cc(F)c3c(c2)c(N(C)C)nn3C)c(C(N)=O)cc1F)C1CC1` [Example 2-383, 6-(((1R,2S)-2-amino-1-cyclopropylbutyl)amino)-2-((3-(dimethylamino)-7-fluoro-1-methyl-1H-indazol-5-yl)amino)-5-fluoronicotinamide], the IC50 is under 10 nM.
For `CCn1ncc2c(Nc3nc(N[C@H](c4ccccc4F)[C@H](C)N)c(F)cc3C(N)=O)cccc21` [Example 2-514, 6-(((1R,2S)-2-amino-1-(2-fluorophenyl)propyl)amino)-2-((1-ethyhl-1H-indazol-4-yl)amino)-5-fluoronicotinamide], the IC50 was under 10 nM.
As for `Cc1ncc(Nc2nc(N[C@H](c3ccc(C(F)(F)F)cc3)[C@H](C)N)c(F)cc2C(N)=O)cc1-n1nccn1` [Example 2-354, 6-(((1R,2S)-2-amino-1-(4-(trifluoromethyl)phenyl)propyl)amino)-5-fluoro-2-((6-methyl-5-(2H-1,2,3-triazol-2-yl)pyridin-3-yl)amino)nicotinamide], the IC50 lay in the range of 10 to 50 nM.
Consider `CCC[C@@H](Nc1nc(Nc2cnc3c(c2)c(N(C)C)nn3C)c(C(N)=O)cc1F)[C@H](C)N` [Example 2-289, 6-(((2S,3R)-2-aminohexan-3-yl)amino)-2-((3-(dimethylamino)-1-methyl-1H-pyrazolo[3,4-b]pyridin-5-yl)amino)-5-fluoronicotinamide], for which the IC50 was under 10 nM.
With `CC(C)Oc1ccc(Nc2nc(N[C@@H]3CCCC[C@@H]3N)c(F)cc2C(N)=O)cc1` [Example 2-449, 6-(((1R,2S)-2-aminocyclohexyl)amino)-5-fluoro-2-((4-isopropoxyphenyl)amino) nicotinamide], the IC50 is under 10 nM.
As for `COc1ncc(Nc2nc(N[C@H](CC(C)C)[C@H](C)N)c(F)cc2C(N)=O)cc1-n1nccn1` [Example 2-112, 6-(((2S,3R)-2-amino-5-methylhexan-3-yl)amino)-5-fluoro-2-((6-methoxy-5-(2H-1,2,3-triazol-2-yl)pyridin-3-yl)amino)nicotinamide], the IC50 fell in the range of 10 to 50 nM.
As to `COCCOc1ncc(Nc2nc(N[C@H](CC(C)C)[C@H](C)N)c(F)cc2C(N)=O)cc1F` [Example 2-119, 6-(((2S,3R)-2-amino-5-methylhexan-3-yl)amino)-5-fluoro-2-((5-fluoro-6-(2-methoxyethoxy)pyridin-3-yl)amino)nicotinamide], the IC50 lay in the range of 10 to 50 nM.
As to `Cc1ncc(Nc2nc(N[C@H](Cc3ccccc3)[C@H](C)N)c(F)cc2C(N)=O)cc1-n1nccn1` [Example 2-422, 6-(((2R,3S)-3-amino-1-phenylbutan-2-yl)amino)-5-fluoro-2-((6-methyl-5-(2H-1,2,3-triazol-2-yl)pyridin-3-yl)amino)nicotinamide], the IC50 is 10 to 50 nM.
In the case of `Cc1ncc(Nc2nc(N[C@H](c3cccc(F)c3)[C@H](C)N)c(F)cc2C(N)=O)cc1-n1nccn1` [Example 2-412, 6-(((1R,2S)-2-amino-1-(3-fluorophenyl)propyl)amino)-5-fluoro-2-((6-methyl-5-(2H-1,2,3-triazol-2-yl)pyridin-3-yl)amino)nicotinamide], the IC50 is 10 to 50 nM.
Take `CC[C@H](N)[C@@H](C)Nc1nc(Nc2ccc3c(c2)c(N(C)CCOC)nn3C)c(C(N)=O)cc1F` [Example 2-461, 6-(((2R,3S)-3-aminopentan-2-yl)amino)-5-fluoro-2-((3-((2-methoxyethyl)(methyl)amino)-1-methyl-1H-indazol-5-yl)amino)nicotinamide]: the IC50 is 10 to 50 nM.
As for `COCCn1ncc2c(Nc3nc(N[C@H](COC)[C@H](C)N)c(F)cc3C(N)=O)cccc21` [Example 2-309, 6-(((2S,3S)-3-amino-1-methoxybutan-2-yl)amino)-5-fluoro-2-((1-(2-methoxyethyl)-1H-indazol-4-yl)amino)nicotinamide], the figure is 10 to 50 nM.
As for `CC[C@H](N)[C@H](Nc1nc(Nc2cccc3c2cnn3CC(F)F)c(C(N)=O)cc1F)C1CC1` [Example 2-547, 6-(((1R,2S)-2-amino-1-cyclopropylbutyl)amino)-2-((1-(2,2-difluoroethyl)-1H-indazol-4-yl)amino)-5-fluoronicotinamide], the IC50 is under 10 nM.
Consider `COCCN(C)c1nn(C)c2ccc(Nc3nc(N[C@H](C4CC4)[C@H](C)N)c(F)cc3C(N)=O)cc12` [Example 2-460, 6-(((1R,2S)-2-amino-1-cyclopropylpropyl)amino)-5-fluoro-2-((3-((2-methoxyethyl)(methyl)amino)-1-methyl-1H-indazol-5-yl)amino)nicotinamide], for which the IC50 was under 10 nM.
Next, `CCC[C@@H](Nc1nc(Nc2cnc(OCC)c(-n3cccn3)c2)c(C(N)=O)cc1F)[C@H](C)N` [Example 2-201, 6-(((2S,3R)-2-aminohexan-3-yl)amino)-2-((6-ethoxy-5-(1H-pyrazol-1-yl)pyridin-3-yl)amino)-5-fluoronicotinamide]: 10 to 50 nM; `COC[C@@H](Nc1nc(Nc2ccc3c(c2)c(N(C)C)nn3C)c(C(N)=O)cc1F)[C@H](C)N` [Example 2-120, 6-(((2S,3S)-3-amino-1-methoxybutan-2-yl)amino)-2-((3-(dimethylamino)-1-methyl-1H-indazol-5-yl)amino)-5-fluoronicotinamide]: under 10 nM; `CC[C@@H](Nc1nc(Nc2cnc3c(c2)c(N(C)C)nn3C)c(C(N)=O)cc1F)[C@H](C)N` [Example 2-288, 6-(((2S,3R)-2-aminopentan-3-yl)amino)-2-((3-(dimethylamino)-1-methyl-1H-pyrazolo[3,4-b]pyridin-5-yl)amino)-5-fluoronicotinamide]: 10 to 50 nM.
`COc1ccc([C@@H](Nc2nc(Nc3cc(OC)nc(OC)c3)c(C(N)=O)cc2F)[C@H](C)N)cc1` [Example 2-357, 6-(((1R,2S)-2-amino-1-(4-methoxyphenyl)propyl)amino)-2-((2,6-dimethoxypyridin-4-yl)amino)-5-fluoronicotinamide]: the IC50 was 10 to 50 nM.
Next, `Cc1ncc(Nc2nc(N[C@@H](CN)Cn3cccn3)c(F)cc2C(N)=O)cc1F` [Example 2-469, (S)-6-((1-amino-3-(1H-pyrazol-1-yl)propan-2-yl)amino)-5-fluoro-2-((5-fluoro-6-methylpyridin-3-yl)amino)nicotinamide]: 10 to 50 nM.
With `CCC[C@@H](Nc1nc(Nc2cnc(NC)c(F)c2)c(C(N)=O)cc1F)[C@H](C)N` [Example 2-277, 6-(((2S,3R)-2-aminohexan-3-yl)amino)-5-fluoro-2-((5-fluoro-6-(methylamino)pyridin-3-yl)amino)nicotinamide], the IC50 lay in the range of 10 to 50 nM.
On to `CC[C@@H](Nc1nc(Nc2ccc3nn(C)c(N(C)C)c3c2)c(C(N)=O)cc1F)[C@H](C)N` [Example 2-16, 6-(((2S,3R)-2-aminopentan-3-yl)amino)-2-((3-(dimethylamino)-2-methyl-2H-indazol-5-yl)amino)-5-fluoronicotinamide], for which the IC50 is 10 to 50 nM.
Next, `C[C@H](N)[C@H](Nc1nc(Nc2ccc3c(c2)c(N(C)C)nn3C)c(C(N)=O)cc1F)c1ccccc1` [Example 2-315, 6-(((1R,2S)-2-amino-1-phenylpropyl)amino)-2-((3-(dimethylamino)-1-methyl-1H-indazol-5-yl)amino)-5-fluoronicotinamide]: 10 to 50 nM.
On to `CC[C@H](N)[C@H](Nc1nc(Nc2cccnc2)c(C(N)=O)cc1F)C1CC1` [Example 2-485, 6-(((1R,2S)-2-amino-1-cyclopropylbutyl)amino)-5-fluoro-2-(pyridin-3-ylamino)nicotinamide], for which the IC50 was 10 to 50 nM.
Regarding `CC(C)c1ccc(Nc2nc(N[C@@H]3CCCC[C@@H]3N)c(F)cc2C(N)=O)cc1` [Example 2-448, 6-(((1R,2S)-2-aminocyclohexyl)amino)-5-fluoro-2-((4-isopropylphenyl)amino) nicotinamide], the IC50 is 10 to 50 nM.
For the compound `CC(C)C[C@H](CN)Nc1nc(Nc2ccc3c(c2)c(N(C)C)nn3C)c(C(N)=O)cc1F` [Example 2-86, (R)-6-((1-amino-4-methylpentan-2-yl)amino)-2-((3-(dimethylamino)-1-methyl-1H-indazol-5-yl)amino)-5-fluoronicotinamide], the IC50 is under 10 nM.
As for `CC[C@@H](Nc1nc(Nc2ccc3c(c2)c(OC(F)F)nn3CCOC)c(C(N)=O)cc1F)[C@H](C)N` [Example 2-175, 6-(((2S,3R)-2-aminopentan-3-yl)amino)-2-((3-(difluoromethoxy)-1-(2-methoxyethyl)-1H-indazol-5-yl)amino)-5-fluoronicotinamide], the IC50 is under 10 nM.
Regarding `COCCOc1ncc(Nc2nc(N[C@H](CC(C)C)[C@H](C)N)c(F)cc2C(N)=O)cc1-n1nccn1` [Example 2-140, 6-(((2S,3R)-2-amino-5-methylhexan-3-yl)amino)-5-fluoro-2-((6-(2-methoxyethoxy)-5-(2H-1,2,3-triazol-2-yl)pyridin-3-yl)amino)nicotinamide], the half-inhibitory concentration (IC50) is 10 to 50 nM.
